Where a name gives a salt, the structure may show the parent alone.
molecular target: T1, recombinant Human CYP17 enzyme (17-20 lyase) (Homo sapiens, UniProt P05093); assay: Cytochrome P450, 17-20 lyase (CYP17-lyase) assay, 17-α-hydroxy pregnenolone [21-3H] as substrate; type: biochemical; conditions: at 10 μM; read-out: hCYP17 Lyase % Inh
T1 construct: made in house; host or cells: A549 cells, adenoviral expression system; purified cell membrane preparations
T1 sequence (P05093 1-508): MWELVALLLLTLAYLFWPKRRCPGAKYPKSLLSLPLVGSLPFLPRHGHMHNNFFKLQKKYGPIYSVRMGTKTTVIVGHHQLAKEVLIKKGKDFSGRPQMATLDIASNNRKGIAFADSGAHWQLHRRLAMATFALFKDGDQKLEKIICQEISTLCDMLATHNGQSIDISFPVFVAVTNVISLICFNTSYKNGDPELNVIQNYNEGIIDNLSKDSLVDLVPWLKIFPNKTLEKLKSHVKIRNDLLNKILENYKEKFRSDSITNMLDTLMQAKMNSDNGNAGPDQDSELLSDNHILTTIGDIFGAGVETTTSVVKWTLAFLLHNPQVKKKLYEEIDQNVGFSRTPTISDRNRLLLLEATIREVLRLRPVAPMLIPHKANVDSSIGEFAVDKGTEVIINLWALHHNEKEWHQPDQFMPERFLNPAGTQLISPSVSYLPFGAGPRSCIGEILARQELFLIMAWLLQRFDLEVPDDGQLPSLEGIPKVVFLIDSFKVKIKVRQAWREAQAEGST
Source text: 1) Cytochrome P450, 17-20 Lyase (CYP17-Lyase) Assay Development Using Recombinant Human CYP17 Enzyme and 17-α-Hydroxy Pregnenolone [21-3H] as the Substrate.
Cytochrome P450, 17-α-Hydroxylase, 17-20 lyase (CYP17) is a multi functional enzyme that plays a key role in the biosynthesis of steroid hormones. It catalyses both conventional hydroxylation and also the carbon-carbon bond cleavage reactions (Peter Lee-Robichaud et al, Biochem. J, (1997) 321, 857-63). In the hydroxylation reaction, it converts progesterone and pregnenolone to the corresponding hydroxylated products 17-α-hydroxy progesterone and 17-α-hydroxy pregnenolone. In the lyase reaction, it catalyzes the conversion of these hydroxylated substrates to Androstenedione and Dehydroepiandrosterone (DHEA) respectively. In the Cyp17 lyase assay described here, the conversion of 17-α-hydroxy pregnenolone to Dehydroepiandrosterone and acetic acid is being monitored.
Assay method was adopted from a published protocol with some modifications to suit our requirements (Dmitry N Grigoryev et al, Analytical Biochemistry, (1999) 267, 319-330). The conversion of 17-α-hydroxy pregnenolone to Dehydroepiandrosterone is accompanied by the release of acetic acid. In the Cyp17 lyase assay, 17-α-hydroxy pregnenolone labeled with tritium (3H) at position 21 is used as the substrate. Chloroform extraction removes the radioactive steroids and acetic acid is taken into aqueous layer. The tritiated acetic acid released in the assay thus extracted is quantified to determine the enzyme activity.
Initial buffer conditions were, 50 mM Phosphate buffer, pH 7.5 was used as the starting buffer for Cyp17 lyase activity based on the data published in US patent publication No. US2004/0198773 A1. […] Human Cyp 17 gene was cloned and expressed in Adenoviral expression system in A549 cell lines. The purified cell membrane preparations were used as the source for Human CYP17 enzyme. Total protein concentration: 8 mg/mL.
For routine screening, the assay was set up with 16 μg of enzyme in 50 μL reaction volume. 17α-hydroxy pregnenolone [21-3H] was added to a final concentration of 0.25 μM. NADPH is used at a final concentration of 4.2 mM. Total reaction volume was made up to 50 μL with 50 mM Phosphate buffer pH 7.5. The reaction mixture was incubated at room temperature for 90 minutes with gentle shaking. The reaction was stopped by the addition of 100 μL of buffer. 500 μL of 5% freshly prepared activated charcoal was added to the solution and mixed well by vortexing. The samples were centrifuged at 17568×g for 5 minutes. (14000 rpm). The supernatant was carefully transferred to fresh tube and 1.3 mL of scintillation fluid was added, mixed by vortexing.
The radioactivity was measured in a 1450 MicroBeta TriLux™ scintillation counter from Wallac-Perkin Elmer®, USA. The measurements were carried out in 2.0 mL Eppendorf™ tubes. Each tube was counted for 1 minute. The amount of tritiated acetic acid released is proportional to the lyase activity. Percent lyase activity in presence of inhibitor was calculated using the formula given below.
[formula] • Sample: Enzyme reaction in presence of inhibitor. • Positive control: Enzyme reaction without inhibitor but containing DMSO at 1% final concentration. • Blank—Contains all reagents except enzyme. • % Inhibition=100%−% Lyase activity
For IC50 determination, the % inhibition was plotted as a function of inhibitor concentration. The data was fitted to sigmoidal equation using Graphpad Prism® software IV to generate IC50 values.

inhibition at 10 µM [%] | Structure (SMILES)
8 | COc1ccc(F)c2c1C(=O)N(c1cnccc1C)CC2 [Example 44A, 5-fluoro-8-methoxy-2-(4-methylpyridin-3-yl) 3,4-dihydroisoquinolin-1(2H)-one]
76 | Cc1ccncc1N1CCc2ccc(F)c(NCC3CC3)c2C1=O [Example 39A, 8-(cyclopropylmethylamino)-7-fluoro-2-(4-methylpyridin-3-yl)-3,4-dihydroisoquinolin-1(2H)-one, acetate salt]
35 | Cc1ccncc1N1CCc2scc(-c3ccc(F)cc3)c2C1=O [Example 15A, 3-(4-Fluoro-phenyl)-5-(4-methyl-pyridin-3-yl)-6,7-dihydro-5H-thieno[3,2-c]pyridin-4-one]
75 | Cc1ccncc1N1CCc2sccc2C1=O [Example 7A, 5-(4-Methyl-pyridin-3-yl)-6,7-dihydro-5H-thieno[3,2-a]pyridin-4-one]
48 | O=C1c2sccc2CCN1c1cccnc1 [Example 6A, 6-Pyridin-3-yl-5,6-dihydro-4H-thieno[2,3-c]pyridin-7-one]

same assay, conditions: human CYP17 lyase; substrate 0.25 μM; room temperature, 90 minutes; read-out: Lyase IC 50 nM Human

IC50 [nM] | Structure (SMILES)
1510 | Cc1ccncc1N1CCc2c([nH]c3ccccc23)C1=O [Example 61A, 2-(4-methylpyridin-3-yl)-2,3,4,9-tetrahydro-1H-pyrido[3,4-b]indol-1-one]
54 | O=c1c2cc(C(F)(F)F)ccc2ccn1-c1cccnc1 [Example 36A, 2-(pyridin-3-yl)-7-(trifluoromethyl)isoquinolin-1(2H)-one]
1110 | O=C1c2ccc(C(F)(F)F)cc2CCN1c1cncc(F)c1 [Example 56A, 2-(5-fluoropyridin-3-yl)-6-(trifluoromethyl)-3,4-dihydroisoquinolin-(2H)-one]
10 | COc1cc2c(cc1Cl)C(=O)N(c1cnccc1C1CC1)CC2 [Example 89A, 7-chloro-2-(4-cyclopropylpyridin-3-yl)-6-methoxy-3,4-dihydroisoquinolin-1(2H)-one]
159 | Cc1ccncc1N1CCc2cc(F)c(F)cc2C1=O [Example 49A, 6,7-difluoro-2-(4-methylpyridin-3-yl)-3,4-dihydroisoquinolin-1(2H)-one]
917 | COc1cccc2c1CCN(c1cnccc1C)C2=O [Example 13A, 5-Methoxy-2-(4-methyl-pyridin-3-yl)-3,4-dihydro-2H-isoquinolin-1-one]
5.5 | Cc1ccncc1N1CCc2ccc(C(F)(F)F)cc2C1=O [Example 4A, 2-(4-Methyl-pyridin-3-yl)-7-trifluoromethyl-3,4-dihydro-2H-isoquinolin-1-one]
14 | O=C1c2cc(C(F)(F)F)ccc2CCN1c1cnccc1C1CC1 [Example 73A, 2-(4-cyclopropylpyridin-3-yl)-7-(trifluoromethyl)-3,4-dihydroisoquinolin-1(2H)-one]
727 | Cc1ccncc1N1CCc2ccc(OCC3CC3)cc2C1=O [Example 31A, 7-(cyclopropylmethoxy)-2-(4-methylpyridin-3-yl)-3,4-dihydroisoquinolin-1 (2H)-one]
5.3 | Cc1ccncc1N1CCc2cc(F)c(Cl)cc2C1=O [Example 84A, 7-chloro-6-fluoro-2-(4-methylpyridin-3-yl)-3,4-dihydroisoquinolin-1(2H)-one]
173 | O=C1c2cc(Cl)c(F)cc2CCN1c1cnccc1C(F)(F)F [Example 80A, 7-chloro-6-fluoro-2-(4-(trifluoromethyl)pyridin-3-yl)-3,4-dihydroisoquinolin-1(2H)-one]
16 | Cc1ccncc1N1C(=O)c2cc(C(F)(F)F)ccc2CC1C (centres unmarked) [Example 48A, 3-Methyl-2-(4-methyl-pyridin-3-yl)-7-trifluoromethyl-3,4-dihydro-2H-isoquinolin-1-one]
125 | O=C1c2cc(Cl)c(Cl)cc2CCN1c1cnccc1C(F)(F)F [Example 55A, 6,7-dichloro-2-(4-(trifluoromethyl)pyridin-3-yl)-3,4-dihydroisoquinolin-1(2H)-one]
11 | Cc1ccncc1N1CCc2cc(C#N)c(Cl)cc2C1=O [Example 88A, 7-chloro-2-(4-methylpyridin-3-yl)-1-oxo-1,2,3,4-tetrahydroisoquinoline-6-carbonitrile]
369 | Cc1ccncc1N1CC(C)(C)c2ccc(C(F)(F)F)cc2C1=O [Example 20A, 4,4-Dimethyl-2-(4-methyl-pyridin-3-yl)-7-trifluoromethyl-3,4-dihydro-2H-isoquinolin-1-one]
95 | Cc1ccncc1N1CCc2cc(C(F)(F)F)ccc2C1=O [Example 17A, 2-(4-Methyl-pyridin-3-yl)-6-trifluoromethyl-3,4-dihydro-2H-Isoquinolin-1-one]
17 | Cc1ccncc1-n1ccc2[nH]c3ccccc3c2c1=O [Example 62A, 2-(4-methylpyridin-3-yl)-2,5-dihydro-1H-pyrido[4,3-b]indol-1-one]
6 | Cc1ccncc1N1CCc2sc3ccc(F)cc3c2C1=O [Example 50A, 8-Fluoro-2-(4-methylpyridin-3-yl)-3,4-dihydrobenzo[4,5]thieno[3,2-c]pyridin-1(2H)-one]
334 | O=C1c2cc(C(F)(F)F)ccc2CCN1c1cncc(F)c1 [Example 18A, 2-(5-Fluoro-pyridin-3-yl)-7-trifluoromethyl-3,4-dihydro-2H-isoquinolin-1-one]
1.5 | Cc1ccncc1N1CCc2sc3ccccc3c2C1=O [Example 9A, 2-(4-Methyl-pyridin-3-yl)-3,4-dihydro-2H-benzo[4,5]thieno[3,2-c]pyridin-1-one]
175 | O=C1c2cc(C(F)(F)F)ccc2CCN1c1cccnc1 [Example 16A, 2-Pyridin-3-yl-7-trifluoromethyl-3,4-dihydro-2H-isoquinolin-1-one]
556 | O=C1c2cc(C(F)(F)F)ccc2CCN1c1cnccc1CN1CCCC1 [Example 52A, 2-(4-(Pyrrolidin-1-ylmethyl)pyridin-3-yl)-7-(trifluoromethyl)-3,4-dihydroisoquinolin-1(2H)-one]
214 | COc1ccc2c(c1)CCN(c1cnccc1C)C2=O [Example 11A, 6-Methoxy-2-(4-methyl-pyridin-3-yl)-3,4-dihydro-2H-isoquinolin-1-one]
11 | Cc1ccncc1N1CCc2ccc3ncsc3c2C1=O [Example 66A, 8-(4-methylpyridin-3-yl)-7,8-dihydrothiazolo[4,5-h]isoquinolin-9(6H)-one]
744 | CC1Cc2ccc(C(F)(F)F)cc2C(=O)N1c1cnccc1C(F)(F)F (centres unmarked) [Example 70A, 3-methyl-7-(trifluoromethyl)-2-(4-(trifluoromethyl)pyridin-3-yl)-3,4-dihydroisoquinolin-1(2H)-one]
56 | O=C1c2cc(C(F)(F)F)ccc2CCN1c1cnccc1C(F)(F)F [Example 21A, 7-Trifluoromethyl-2-(4-trifluoromethyl-pyridin-3-yl)-3,4-dihydro-2H-isoquinolin-1-one]
755 | Cc1ccncc1N1CCc2sc(-c3ccc(F)cc3)cc2C1=O [Example 14A, 2-(4-Fluoro-phenyl)-5-(4-methyl-pyridin-3-yl)-6,7-dihydro-5H-thieno[3,2-c]pyridin-4-one]

Source: patent publication US8946260B2, “17α-hydroxylase/C17,20-lyase inhibitors” (Novartis AG, priority 2010, dated 2015)
